Assay results published in patent US12390447B2, “Sirtuin 6 protein deacylase (SIRT6) activators” (Wisconsin Alumni Research Foundation, priority 2019, dated 2025).

Experiments:
SIRT6 = SIRT6 (Homo sapiens, UniProt Q8N6T7); experiment: Steady-state kinetic analysis of SIRT6 deacetylation (Michaelis-Menten); format: biochemical; settings: in the presence of 100 μM CL4, 50 μM TTNPB, 50 μM LPA or 50 μM LGly
Description: (§1) FIGS. 1A-F illustrate the identification of novel SIRT6 activators. (1A) Compound libraries BML-2803, BML-2800, and an additional set of 178 molecules were screened at 100 μM for their ability to stimulate SIRT6 (1 μM) deacetylation of H3K9ac peptide (20 μM) in the presence of 0.5 mM NAD^+. SIRT6 activity was measured by HPLC quantification of H3K9ac and deacetylated product (inset) and fold activations relative to DMSO control were determined and compiled. (1B) Fold-activation of SIRT6 (1 μM) determined in the presence of either 0-400 μM CL4, 0-150 μM TTNPB, 0-100 μM Lysophosphatidic acid (LPA), or 0-200 μM linoleoylglycine (LGly). Maximum fold-activation and EC50 determined by sigmoidal curve fit. […] Constants Km, H3K9ac and kcat were determined by fitting data to Michaelis-Menten equation. (1D) Fold-activations of SIRT1 (0.1 μM), SIRT2 (0.2 μM), SIRT3 (1 μM), SIRT5 (2 μM), and SIRT6 (1 μM) determined in the presence of CL4 (100 μM), TTNPB (50 μM), and LPA (50 μM) relative to DMSO control against 20 μM H3K9ac peptide and 0.5 mM NAD^+. […]
FIGS. 2A-D show results characterizing SIRT6 activator CL5D. […] (2B) SIRT6 demyristoylase activity determined in the presence of 0-25 μM H3K9myr peptide, 0.5 mM NAD^+ and 5% DMSO (•), 12.5 μM CL5D (▪), 25 μM CL5D (♦), and 50 μM CL5D (▴). […]

[1] = Micelle formation with fluorescent membrane probe diphenylhexatriene (DPH); format: physicochemical
SIRT6 WT = SIRT6 WT (Homo sapiens, UniProt Q8N6T7); experiment: Steady-state deacetylation rate of SIRT6 WT with or without CL5D; format: biochemical; settings: SIRT6 WT 1 μM, H3K9ac 40 μM, CL5D 50 μM, 25 minutes
Description: All sirtuin deacylation assays were carried out at 37° C. in 20 mM potassium phosphate pH 7.5 with 0.5 mM NAD^+, 10% DMSO, and 20 μM H3K9ac or H3K9myr peptides, unless otherwise noted in legend, and quenched by the addition of 2% TFA final. Steady-state reactions were constrained to less than 20% substrate turnover to prevent product inhibition. A variety of times were required to monitor SIRT6 deacetylation (2-60 minutes) under this restraint given the ability to strongly activate catalysis. In these cases, specific activities were determined and either reported as is or as fold-activation of specific activity. Deacylation reactions were analyzed by reversed phase high-performance liquid chromatography on a Kinetex C18 column (100 Å, 100×4.6 mm, 2.6 μm, Phenomenex) by monitoring the formation of the deacylated product at 214 nm. Deacetylation reactions were analyzed using a gradient of 33-100% B (30% acetonitrile with 0.05% TFA) in 8 min at 1.6 mL min^−1. Demyristoylation reactions were analyzed using a gradient of 3 to 100% B (acetonitrile with 0.05% TFA) in 10 min at 1.6 mL min^−1. The product and substrate peaks were quantified and ratio of these allowed for quantification of product formation. Three independent experiments were performed for each condition with averages being plotted and error bars representing the standard deviation of these replicates. […]

SIRT2 = target: T1, SIRT2 (Homo sapiens, UniProt Q8IXJ6); experiment: SIRT2 deacetylase activity against H3K9ac peptide; format: biochemical
T1 sequence (Q8IXJ6 1-389): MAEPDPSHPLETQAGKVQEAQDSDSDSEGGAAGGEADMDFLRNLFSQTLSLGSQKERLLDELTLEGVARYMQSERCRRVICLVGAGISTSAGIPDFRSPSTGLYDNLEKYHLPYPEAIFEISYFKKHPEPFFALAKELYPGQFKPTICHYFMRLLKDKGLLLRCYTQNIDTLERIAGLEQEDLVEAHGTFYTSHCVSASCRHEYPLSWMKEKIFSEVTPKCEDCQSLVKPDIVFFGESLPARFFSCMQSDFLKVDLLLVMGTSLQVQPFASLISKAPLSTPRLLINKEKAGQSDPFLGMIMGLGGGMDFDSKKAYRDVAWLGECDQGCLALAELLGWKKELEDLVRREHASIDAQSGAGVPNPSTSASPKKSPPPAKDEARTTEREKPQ
Description: as §1
All sirtuin deacylation assays were carried out at 37° C. in 20 mM potassium phosphate pH 7.5 with 0.5 mM NAD^+, 10% DMSO, and 20 μM H3K9ac or H3K9myr peptides, unless otherwise noted in legend, and quenched by the addition of 2% TFA final. […] The product and substrate peaks were quantified and ratio of these allowed for quantification of product formation. […]

SIRT6, sequence (Q8N6T7 whole entry): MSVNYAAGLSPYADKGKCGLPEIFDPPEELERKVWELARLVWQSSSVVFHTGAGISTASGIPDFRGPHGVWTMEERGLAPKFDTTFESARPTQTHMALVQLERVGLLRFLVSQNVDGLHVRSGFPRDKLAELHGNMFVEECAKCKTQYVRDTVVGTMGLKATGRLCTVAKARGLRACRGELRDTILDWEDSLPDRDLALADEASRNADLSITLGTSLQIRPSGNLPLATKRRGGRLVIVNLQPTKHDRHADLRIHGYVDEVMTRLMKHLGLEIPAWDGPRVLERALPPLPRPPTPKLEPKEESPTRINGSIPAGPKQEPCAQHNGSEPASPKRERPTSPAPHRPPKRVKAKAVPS
SIRT6 WT, sequence (Q8N6T7 whole entry): as above

| kcat (SIRT6) | concentration at which micelle formation was observed [1] | RateCL5D (SIRT6 WT) | SIRT2 deacetylase activity at high activator concentration (SIRT2; 400 μM compound) | micelle formation (in words) [1] | specificity for SIRT6 over SIRT2 (SIRT2; CL4 100 μM, TTNPB 50 μM, LPA 50 μM) | Structure (SMILES) |
| --- | --- | --- | --- | --- | --- | --- |
| 2.8 ± 0.1 s^−1 × 10^−3 | > 300 µM | – | – | – | – | CCCCC/C=C\C/C=C\CCCCCCCC(=O)NCC(=O)O [N-Linoleoylglycine, linoleoyl-glycine, reference compound] |
| – | – | 0.164 ± 0.008 µM/min | inhibited | – | – | O=C(O)c1ccc2c(c1)C(=O)N(c1ccc(N(C(=O)c3c(Cl)cc(Cl)cc3Cl)C(=O)c3c(Cl)cc(Cl)cc3Cl)c(Cl)c1)C2=O [CL-5D, 2-(3-chloro-4-(2,4,6-trichloro-N-(2,4,6-trichlorobenzoyl)benzamido)phenyl)-1,3-dioxoisoindoline-5-carboxylic acid] |
| 1.5 ± 0.3 s^−1 × 10^−3 | – | – | – | not observed to form micelles | greater than 19 fold | O=C(O)c1ccc2c(c1)C(=O)N(c1ccc(NC(=O)c3ccc(Cl)cc3Cl)c(Cl)c1)C2=O [CL-4, 2-(3-chloro-4-(2,4-dichlorobenzamido)phenyl)-1,3-dioxoisoindoline-5-carboxylic acid] |
